# Experimental data from ChEMBL document CHEMBL4680273, “Teixobactin: A Paving Stone toward a New Class of Antibiotics?” (2020).
# Experiments:
# Type in all cases: functional
# [1] = tested on: Staphylococcus aureus; assay: Antibacterial activity against methicillin resistant Staphylococcus aureus
# [2] = tested on: Staphylococcus aureus; assay: Antibacterial activity against Staphylococcus aureus ATCC 29213 by CLSI-based broth microdilution method
# [3] = tested on: Staphylococcus aureus; assay: Antibacterial activity against Staphylococcus aureus ATCC 29213
# [4] = tested on: Staphylococcus aureus; assay: Antibacterial activity against methicillin- resistant Staphylococcus aureus SA86
# [5] = tested on: Staphylococcus aureus; assay: Antibacterial activity against Staphylococcus aureus ATCC 29213 incubated for 24 hrs by CLSI-based broth microdilution method
# [6] = tested on: Bacillus subtilis; assay: Antibacterial activity against Bacillus subtilis ATCC 6051 incubated for 24 hrs by CLSI based broth microdilution method
# [7] = tested on: Staphylococcus aureus; assay: Antibacterial activity against methicillin resistant Staphylococcus aureus ATCC 33591 incubated for 24 hrs
SMILES,MIC [2],MIC [3],MIC [4],MIC [5],MIC [6],other results
CC[C@H](C)[C@H](NC(=O)[C@@H](Cc1ccccc1)NC)C(=O)N[C@@H](CO)C(=O)N[C@H](CC(N)=O)C(=O)N[C@@H](C(=O)N[C@H](C(=O)N[C@@H](C)C(=O)N[C@H]1C(=O)N[C@@H](C)C(=O)N[C@@H](CCCNC(=N)N)C(=O)N[C@@H]([C@@H](C)CC)C(=O)O[C@H]1C)[C@@H](C)CC)[C@@H](C)CC,2 µg/mL,–,–,–,–,MIC [1]: 0.5 µg/mL
CC[C@H](C)[C@H](NC(=O)[C@H](NC(=O)[C@@H](CCC(N)=O)NC(=O)[C@H](CO)NC(=O)[C@@H](NC(=O)[C@@H](Cc1ccccc1)NC)C(C)C)[C@@H](C)CC)C(=O)N[C@@H](CO)C(=O)N[C@H]1C(=O)N[C@@H](C)C(=O)NC(CCCN)C(=O)N[C@@H]([C@@H](C)CC)C(=O)O[C@H]1C (some centres undefined),–,8 µg/mL,8 µg/mL,–,–,–
CC[C@H](C)[C@H](NC(=O)[C@@H](Cc1ccccc1)NC)C(=O)N[C@@H](CO)C(=O)N[C@H](CCC(N)=O)C(=O)N[C@@H](C(=O)N[C@H](C(=O)N[C@@H](CCCCO)C(=O)N[C@H]1C(=O)N[C@@H](C)C(=O)N[C@@H](CCCNC(=N)N)C(=O)N[C@@H]([C@@H](C)CC)C(=O)O[C@H]1C)[C@@H](C)CC)[C@@H](C)CC,–,–,–,32 µg/mL,8 µg/mL,–
CC[C@H](C)[C@H](NC(=O)[C@@H](Cc1ccccc1)NC)C(=O)N[C@@H](CO)C(=O)N[C@H](CCCNC(=N)N)C(=O)N[C@@H](C(=O)N[C@H](C(=O)N[C@@H](C)C(=O)N[C@H]1C(=O)N[C@@H](C)C(=O)N[C@@H](CCCNC(=N)N)C(=O)N[C@@H]([C@@H](C)CC)C(=O)O[C@H]1C)[C@@H](C)CC)[C@@H](C)CC,2 µg/mL,–,–,–,–,MIC [1]: 1 µg/mL
CC[C@H](C)[C@H](NC(=O)[C@@H](Cc1ccccc1)NC)C(=O)N[C@@H](CO)C(=O)N[C@H](CCCCN)C(=O)N[C@@H](C(=O)N[C@H](C(=O)N[C@@H](C)C(=O)N[C@H]1C(=O)N[C@@H](C)C(=O)N[C@@H](CCCNC(=N)N)C(=O)N[C@@H]([C@@H](C)CC)C(=O)O[C@H]1C)[C@@H](C)CC)[C@@H](C)CC,–,–,–,4 µg/mL,1 µg/mL,–
CC[C@H](C)[C@H](NC(=O)[C@@H](Cc1ccccc1)NC)C(=O)N[C@@H](CO)C(=O)N[C@H](CCC(N)=O)C(=O)N[C@@H](C(=O)N[C@H](C(=O)N[C@@H](CO)C(=O)N[C@H]1C(=O)N[C@@H](C)C(=O)NC(CCCN)C(=O)N[C@@H]([C@@H](C)CC)C(=O)O[C@H]1C)[C@@H](C)CC)C(C)C (some centres undefined),–,8 µg/mL,16 µg/mL,–,–,–
CC[C@H](C)[C@H](NC(=O)[C@@H](Cc1ccccc1)NC)C(=O)N[C@@H](CO)C(=O)N[C@H](CCC(N)=O)C(=O)N[C@@H](C(=O)N[C@H](C(=O)N[C@@H](CO)C(=O)N[C@H]1C(=O)N[C@@H](C)C(=O)NC(CCCN)C(=O)N[C@@H](C(C)C)C(=O)O[C@H]1C)[C@@H](C)CC)[C@@H](C)CC (some centres undefined),–,8 µg/mL,8 µg/mL,–,–,–
CC[C@H](C)[C@H](NC(=O)[C@H](N)Cc1ccccc1)C(=O)N[C@@H](CO)C(=O)N[C@H](CCC(N)=O)C(=O)N[C@@H](C(=O)N[C@H](C(=O)N[C@@H](CO)C(=O)N[C@H]1C(=O)N[C@@H](C)C(=O)N[C@@H](CCCNC(=N)N)C(=O)N[C@@H]([C@@H](C)CC)C(=O)O[C@H]1C)[C@@H](C)CC)[C@@H](C)CC,2 µg/mL,–,–,–,–,–
CC[C@H](C)[C@H](NC(=O)[C@@H](Cc1ccccc1)NC)C(=O)N[C@@H](CO)C(=O)N[C@H](CCC(N)=O)C(=O)N[C@@H](C(=O)N[C@H](C(=O)N[C@@H](C)C(=O)N[C@H]1C(=O)N[C@@H](C)C(=O)N[C@@H](CCCNC(=N)N)C(=O)N[C@@H]([C@@H](C)CC)C(=O)O[C@H]1C)[C@@H](C)CC)[C@@H](C)CC,32 µg/mL,–,–,–,–,MIC [7]: 32 µg/mL
CC[C@H](C)[C@H](NC(=O)[C@@H](Cc1ccccc1)NC)C(=O)N[C@@H](CCCCN)C(=O)N[C@H](CCC(N)=O)C(=O)N[C@@H](C(=O)N[C@H](C(=O)N[C@@H](CO)C(=O)N[C@H]1C(=O)N[C@@H](C)C(=O)N[C@@H](CCCNC(=N)N)C(=O)N[C@@H]([C@@H](C)CC)C(=O)O[C@H]1C)[C@@H](C)CC)[C@@H](C)CC,–,–,–,4 µg/mL,0.25 µg/mL,–
